# Measurements taken from PubChem BioAssay (NCI).
#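 Tested at 5 concentrations; 48 h exposure; 96-well plates; endpoints linearly interpolated, else capped at highest concentration. The concentration for 50% growth inhibition is given as GI50. TGI denotes the concentration required for complete inhibition of growth.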
# Tests used:
# Experiment in all cases: NCI-60 cell line screen, 48 h
# MDA-MB-231 breast = test system: MDA-MB-231 breast
# HOP-92 NSCLC = test system: HOP-92 NSCLC
# SK-MEL-2 melanoma = test system: SK-MEL-2 melanoma
# SNB-75 CNS = test system: SNB-75 CNS
# RXF 393 renal = test system: RXF 393 renal
# BT-549 breast = test system: BT-549 breast
# HOP-62 NSCLC = test system: HOP-62 NSCLC
# CCRF-CEM leukemia = test system: CCRF-CEM leukemia
# SF-539 CNS = test system: SF-539 CNS
# NCI-H23 lung = test system: NCI-H23 lung
# TK-10 renal = test system: TK-10 renal
# SNB-19 CNS = test system: SNB-19 CNS
# HS 578T breast = test system: HS 578T breast
# NCI/ADR-RES ovarian = test system: NCI/ADR-RES ovarian
# SF-268 CNS = test system: SF-268 CNS
# SF-295 CNS = test system: SF-295 CNS
# U251 CNS = test system: U251 CNS
# 786-0 renal = test system: 786-0 renal
# ACHN renal = test system: ACHN renal
# OVCAR-4 ovarian = test system: OVCAR-4 ovarian
# LOX IMVI melanoma = test system: LOX IMVI melanoma
# COLO 205 colon = test system: COLO 205 colon
# MCF7 breast = test system: MCF7 breast
# MDA-MB-435 = test system: MDA-MB-435
# PC-3 prostate = test system: PC-3 prostate
# UACC-62 melanoma = test system: UACC-62 melanoma
# SR leukemia = test system: SR leukemia
# HT29 colon = test system: HT29 colon
# OVCAR-5 ovarian = test system: OVCAR-5 ovarian
# OVCAR-3 ovarian = test system: OVCAR-3 ovarian
# HCT-15 colon = test system: HCT-15 colon
# SN12C renal = test system: SN12C renal
# NCI-H522 lung = test system: NCI-H522 lung
# UACC-257 melanoma = test system: UACC-257 melanoma
# SK-MEL-28 melanoma = test system: SK-MEL-28 melanoma
# M14 melanoma = test system: M14 melanoma
# T-47D breast = test system: T-47D breast
# OVCAR-8 ovarian = test system: OVCAR-8 ovarian
# NCI-H460 lung = test system: NCI-H460 lung
# SK-OV-3 ovarian = test system: SK-OV-3 ovarian
# MALME-3M melanoma = test system: MALME-3M melanoma
# A498 renal = test system: A498 renal
# IGROV1 ovarian = test system: IGROV1 ovarian
# UO-31 renal = test system: UO-31 renal
# RPMI-8226 leukemia = test system: RPMI-8226 leukemia
# SK-MEL-5 melanoma = test system: SK-MEL-5 melanoma
# KM12 colon = test system: KM12 colon
# SW-620 colon = test system: SW-620 colon
# HCT-116 colon = test system: HCT-116 colon
# A549 NSCLC = test system: A549 NSCLC
# NCI-H226 lung = test system: NCI-H226 lung
# K-562 leukemia = test system: K-562 leukemia
# HL-60(TB) leukemia = test system: HL-60(TB) leukemia
# EKVX NSCLC = test system: EKVX NSCLC
# HCC-2998 colon = test system: HCC-2998 colon
# MOLT-4 leukemia = test system: MOLT-4 leukemia
compound,measurement,setting,value
CC(=O)Nc1ccc(NC(=O)Nc2cccc(-c3nc(-c4ccc(NC(=O)c5cccs5)cc4Cl)no3)c2)cc1C(F)(F)F,GI50,MDA-MB-231 breast,0.666 µM
same,TGI,MDA-MB-231 breast,2.23 µM
same,GI50,HOP-92 NSCLC,1.09 µM
same,TGI,HOP-92 NSCLC,3.02 µM
same,GI50,SK-MEL-2 melanoma,2.06 µM
same,TGI,SK-MEL-2 melanoma,4.15 µM
same,GI50,SNB-75 CNS,1.31 µM
same,TGI,SNB-75 CNS,2.99 µM
same,GI50,RXF 393 renal,1.14 µM
same,TGI,RXF 393 renal,2.45 µM
same,GI50,BT-549 breast,1.68 µM
same,TGI,BT-549 breast,4.6 µM
same,GI50,HOP-62 NSCLC,0.718 µM
same,TGI,HOP-62 NSCLC,2.25 µM
same,GI50,CCRF-CEM leukemia,1.83 µM
same,TGI,CCRF-CEM leukemia,> 100 µM
same,GI50,SF-539 CNS,1.45 µM
same,TGI,SF-539 CNS,2.91 µM
same,GI50,NCI-H23 lung,1.33 µM
same,TGI,NCI-H23 lung,3.04 µM
same,GI50,TK-10 renal,2.19 µM
same,TGI,TK-10 renal,5.07 µM
same,GI50,SNB-19 CNS,0.692 µM
same,TGI,SNB-19 CNS,2.67 µM
same,GI50,HS 578T breast,1.83 µM
same,TGI,HS 578T breast,4.55 µM
same,GI50,NCI/ADR-RES ovarian,19.7 µM
same,TGI,NCI/ADR-RES ovarian,> 100 µM
same,GI50,SF-268 CNS,1.56 µM
same,TGI,SF-268 CNS,4.08 µM
same,GI50,SF-295 CNS,1.46 µM
same,TGI,SF-295 CNS,2.99 µM
same,GI50,U251 CNS,0.354 µM
same,TGI,U251 CNS,1.08 µM
same,GI50,786-0 renal,2.12 µM
same,TGI,786-0 renal,4.76 µM
same,GI50,ACHN renal,2.67 µM
same,TGI,ACHN renal,8.41 µM
CCC(C)[C@H]1OC(=O)[C@H](C(C)C)N(C)C(=O)[C@@H](C(C)C)OC(=O)[C@H](C(C)C)N(C)C(=O)[C@@H](C(C)CC)OC(=O)[C@H](C(C)C)N(C)C1=O (stereo not given in full),GI50,OVCAR-4 ovarian,0.632 µM
same,TGI,OVCAR-4 ovarian,> 16.7 µM
same,GI50,MDA-MB-231 breast,0.52 µM
same,TGI,MDA-MB-231 breast,1.63 µM
same,GI50,LOX IMVI melanoma,0.562 µM
same,TGI,LOX IMVI melanoma,2.14 µM
same,GI50,COLO 205 colon,0.341 µM
same,TGI,COLO 205 colon,0.743 µM
same,GI50,MCF7 breast,0.529 µM
same,TGI,MCF7 breast,> 16.7 µM
same,GI50,MDA-MB-435,0.619 µM
same,TGI,MDA-MB-435,7.65 µM
same,GI50,HOP-92 NSCLC,0.379 µM
same,TGI,HOP-92 NSCLC,1.05 µM
same,GI50,PC-3 prostate,0.588 µM
same,TGI,PC-3 prostate,9.93 µM
same,GI50,UACC-62 melanoma,0.71 µM
same,TGI,UACC-62 melanoma,2.98 µM
same,GI50,SK-MEL-2 melanoma,0.533 µM
same,TGI,SK-MEL-2 melanoma,2.19 µM
same,GI50,SR leukemia,0.685 µM
same,TGI,SR leukemia,3.62 µM
same,GI50,HT29 colon,0.567 µM
same,TGI,HT29 colon,2.16 µM
same,GI50,SNB-75 CNS,0.507 µM
same,TGI,SNB-75 CNS,2.82 µM
same,GI50,RXF 393 renal,0.42 µM
same,TGI,RXF 393 renal,2.57 µM
same,GI50,BT-549 breast,0.501 µM
same,TGI,BT-549 breast,1.75 µM
same,GI50,OVCAR-5 ovarian,0.537 µM
same,TGI,OVCAR-5 ovarian,6.12 µM
same,GI50,OVCAR-3 ovarian,0.694 µM
same,TGI,OVCAR-3 ovarian,> 16.7 µM
same,GI50,HCT-15 colon,0.536 µM
same,TGI,HCT-15 colon,3.52 µM
same,GI50,HOP-62 NSCLC,0.491 µM
same,TGI,HOP-62 NSCLC,2.42 µM
same,GI50,SN12C renal,0.544 µM
same,TGI,SN12C renal,2.16 µM
same,GI50,NCI-H522 lung,0.429 µM
same,TGI,NCI-H522 lung,1.65 µM
same,GI50,UACC-257 melanoma,0.427 µM
same,TGI,UACC-257 melanoma,1.56 µM
same,GI50,SK-MEL-28 melanoma,0.952 µM
same,TGI,SK-MEL-28 melanoma,4.45 µM
same,GI50,CCRF-CEM leukemia,0.6 µM
same,TGI,CCRF-CEM leukemia,3.04 µM
same,GI50,SF-539 CNS,0.638 µM
same,TGI,SF-539 CNS,2.71 µM
same,GI50,NCI-H23 lung,0.548 µM
same,TGI,NCI-H23 lung,> 16.7 µM
same,GI50,M14 melanoma,0.601 µM
same,TGI,M14 melanoma,2.55 µM
same,GI50,T-47D breast,0.472 µM
same,TGI,T-47D breast,1.47 µM
same,GI50,OVCAR-8 ovarian,0.61 µM
same,TGI,OVCAR-8 ovarian,> 16.7 µM
same,GI50,NCI-H460 lung,0.57 µM
same,TGI,NCI-H460 lung,3.35 µM
same,GI50,SK-OV-3 ovarian,0.379 µM
same,TGI,SK-OV-3 ovarian,1.01 µM
same,GI50,MALME-3M melanoma,0.458 µM
same,TGI,MALME-3M melanoma,1.81 µM
same,GI50,TK-10 renal,0.543 µM
same,TGI,TK-10 renal,3.97 µM
same,GI50,A498 renal,0.39 µM
same,TGI,A498 renal,1.17 µM
same,GI50,IGROV1 ovarian,0.886 µM
same,TGI,IGROV1 ovarian,> 16.7 µM
same,GI50,SNB-19 CNS,0.616 µM
same,TGI,SNB-19 CNS,3.89 µM
same,GI50,UO-31 renal,0.422 µM
same,TGI,UO-31 renal,1.71 µM
same,GI50,HS 578T breast,0.745 µM
same,TGI,HS 578T breast,6.96 µM
same,GI50,RPMI-8226 leukemia,0.413 µM
same,TGI,RPMI-8226 leukemia,1.02 µM
same,GI50,SK-MEL-5 melanoma,0.357 µM
same,TGI,SK-MEL-5 melanoma,0.783 µM
same,GI50,KM12 colon,0.651 µM
same,TGI,KM12 colon,> 16.7 µM
same,GI50,NCI/ADR-RES ovarian,0.51 µM
same,TGI,NCI/ADR-RES ovarian,5.9 µM
same,GI50,SF-268 CNS,0.726 µM
same,TGI,SF-268 CNS,4.26 µM
same,GI50,SW-620 colon,0.616 µM
same,TGI,SW-620 colon,> 16.7 µM
same,GI50,HCT-116 colon,0.532 µM
same,TGI,HCT-116 colon,> 16.7 µM
same,GI50,SF-295 CNS,0.453 µM
same,TGI,SF-295 CNS,1.53 µM
same,GI50,A549 NSCLC,0.514 µM
same,TGI,A549 NSCLC,> 16.7 µM
same,GI50,U251 CNS,0.56 µM
same,TGI,U251 CNS,2.33 µM
same,GI50,NCI-H226 lung,0.647 µM
same,TGI,NCI-H226 lung,2.73 µM
same,GI50,K-562 leukemia,0.687 µM
same,TGI,K-562 leukemia,> 16.7 µM
same,GI50,786-0 renal,0.575 µM
same,TGI,786-0 renal,5.39 µM
same,GI50,HL-60(TB) leukemia,0.383 µM
same,TGI,HL-60(TB) leukemia,0.851 µM
same,GI50,EKVX NSCLC,0.554 µM
same,TGI,EKVX NSCLC,> 16.7 µM
same,GI50,HCC-2998 colon,0.846 µM
same,TGI,HCC-2998 colon,8.06 µM
same,GI50,MOLT-4 leukemia,0.793 µM
same,TGI,MOLT-4 leukemia,2.85 µM
same,GI50,ACHN renal,0.517 µM
same,TGI,ACHN renal,2.96 µM
